Legend:
PLCβ1 = assay: Western blot of hippocampal PLCβ1 after stereotaxic drug injection in 5XFAD mice; format: in vivo; details: m-3M3FBS (50 μM, 0.5 μl per site) injected into dorsal and ventral bilateral hippocampi; three days after injection
Description: To test the acute effect of AβO on hippocampal S-eCB mobilization, hippocampal slices from Sprague-Dawley rats (SD, 2 to 3 weeks old, […] Biolink, Co., Ltd., Korea) were used. Male and female rats were used in all in vitro experiments. To test the chronic effect of AβO on hippocampus-dependent memory impairments caused by amyloidosis, the 5XFAD mouse model (6 to 7 months old, #34840-JAX, Jackson Laboratory, USA), which is a mouse model of Alzheimer's disease that mimics AβO depositions, was used. C57BL/6 mice (6 to 7 months old, KOATECH, Korea) were used as wild type (WT) control mice for 5XFAD mice. Male 5XFAD and C57BL/6 mice were used for all in vivo behavioral experiments. The 5XFAD mouse genotypes were identified by polymerase chain reaction (PCR) using DNA extracted from the tails of the mice. All animal-related procedures followed the guidelines of the Institutional Animal Care and Use Committee of Korea University (guidelines for SD rats: KUIACUC-2017-103, guidelines for C57BL/6 and 5XFAD mice: KUIACUC-2019-0068). […] Immunoreactivity was confirmed with enhanced chemiluminescence (Bio-Rad, USA) using a Fluorchem E system (ProteinSimple, USA) and analyzed with ImageJ software. […]

5XFAD mice = assay: Contextual fear conditioning (CFC), freezing response; format: in vivo; details: m-3M3FBS-injected 5XFAD mice
Description: To test the acute effect of AβO on hippocampal S-eCB mobilization, hippocampal slices from Sprague-Dawley rats (SD, 2 to 3 weeks old, […] Biolink, Co., Ltd., Korea) were used. Male and female rats were used in all in vitro experiments. To test the chronic effect of AβO on hippocampus-dependent memory impairments caused by amyloidosis, the 5XFAD mouse model (6 to 7 months old, #34840-JAX, Jackson Laboratory, USA), which is a mouse model of Alzheimer's disease that mimics AβO depositions, was used. C57BL/6 mice (6 to 7 months old, KOATECH, Korea) were used as wild type (WT) control mice for 5XFAD mice. Male 5XFAD and C57BL/6 mice were used for all in vivo behavioral experiments. […] A ceiling-mounted video camera recorded the behavior activity, and fed the corresponding video into a customized computer software (MATLAB, USA). […] Behavioral mobility data collected during the contextual conditioning experiments were automatically detected using the gray scaling method of EthoVision XT (Noldus, USA). […] Since a body-freezing response (freezing) is considered a conditioned response to CFC during the memory session, the body-freezing response was detected when the threshold was below the 2.0% threshold of mobility. That is, this means that there could be no more than a 2.0% change in the pixels of a detected mouse between the current sample and the previous sample. […]

Cc1cc(C)c(S(=O)(=O)Nc2cccc(C(F)(F)F)c2)c(C)c1 [m-3M3FBS]
hippocampal PLCβ1 protein levels in 5XFAD mice (PLCβ1): completely recovered | freezing responses during memory recall compared to DMSO-injected 5XFAD mice (5XFAD mice): remarkably increased

Reference: patent US20250049741A1, “COMPOSITION FOR PREVENTING OR TREATING ALZHEIMER'S DISEASE COMPRISING PHOSPHOLIPASE C ACTIVATOR AS AN ACTIVE INGREDIENT” (Korea University Research and Business Foundation, priority 2021, published 2025)
